Source: ChEMBL document CHEMBL6114950, “Diamino variants of piperazine-based tissue transglutaminase inhibitors” (Bioorg Med Chem Lett, 2025)
Calls of active or inactive are those of the source. No cut-off for these calls is given here.

How the values were obtained:
[1] = biological target: T1, Protein-glutamine gamma-glutamyltransferase (Homo sapiens) (UniProt P21980); assay: Irreversible inhibition of recombinant human TG2 assessed as inactivation constant using Cbz-Glu(gamma-p-nitrophenyl ester)Gly as a substrate at upto 100 uM by continuous colorimetric assay
T1 sequence (whole entry): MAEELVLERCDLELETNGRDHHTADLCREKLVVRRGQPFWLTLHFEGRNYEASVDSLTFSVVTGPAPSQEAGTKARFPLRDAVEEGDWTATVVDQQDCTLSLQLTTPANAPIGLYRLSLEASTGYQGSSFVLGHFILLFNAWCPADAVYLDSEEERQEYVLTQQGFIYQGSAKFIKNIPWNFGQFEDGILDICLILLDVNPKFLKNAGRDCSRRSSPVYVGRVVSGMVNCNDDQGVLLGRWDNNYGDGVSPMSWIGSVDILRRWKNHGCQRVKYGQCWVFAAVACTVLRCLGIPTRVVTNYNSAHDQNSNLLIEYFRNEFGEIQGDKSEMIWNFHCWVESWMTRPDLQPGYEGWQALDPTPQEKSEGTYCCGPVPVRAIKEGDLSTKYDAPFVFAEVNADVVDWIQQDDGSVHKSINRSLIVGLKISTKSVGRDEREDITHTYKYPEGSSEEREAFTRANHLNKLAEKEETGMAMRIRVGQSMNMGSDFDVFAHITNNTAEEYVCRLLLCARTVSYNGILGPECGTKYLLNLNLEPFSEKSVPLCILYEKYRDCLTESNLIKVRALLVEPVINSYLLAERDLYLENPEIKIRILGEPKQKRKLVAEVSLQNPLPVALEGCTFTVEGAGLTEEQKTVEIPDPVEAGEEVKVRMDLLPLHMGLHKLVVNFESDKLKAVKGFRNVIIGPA

[2] = biological target: T1, Protein-glutamine gamma-glutamyltransferase (Homo sapiens); assay: Irreversible inhibition of recombinant human TG2 assessed as inhibition constant using Cbz-Glu(gamma-p-nitrophenyl ester)Gly as a substrate at upto 100 uM by continuous colorimetric assay
[3] = biological target: T1, Protein-glutamine gamma-glutamyltransferase (Homo sapiens); assay: Irreversible inhibition of recombinant human TG2 assessed as Kinact/Ki using Cbz-Glu(gamma-p-nitrophenyl ester)Gly as a substrate at upto 100 uM by continuous colorimetric assay
[4] = biological target: T1, Protein-glutamine gamma-glutamyltransferase (Homo sapiens)
Description: Irreversible inhibition of recombinant human TG2 assessed as inactivation constant using Cbz-Glu(gamma-p-nitrophenyl ester)Gly as a substrate by continuous colorimetric assay

[5] = Efflux ratio of apparent permeability in MDCK-MDR1 cells; format: ADME, cell-based, Canis lupus familiaris; conditions: dog
[6] = Apparent permeability across apical to basolateral side in […] cells; format: ADME, cell-based, Canis lupus familiaris; conditions: dog, MDCK-MDR1
[7] = Apparent permeability across basolateral to apical side in […] cells; format: ADME, cell-based, Canis lupus familiaris; conditions: dog, MDCK-MDR1
[8] = biological target: T2, Protein-glutamine gamma-glutamyltransferase (Homo sapiens, UniProt P21980); assay: Irreversible inhibition of recombinant human TG2 assessed as inhibition constant using Cbz-Glu(gamma-p-nitrophenyl ester)Gly as a substrate by continuous colorimetric assay
T2 sequence (P21980 whole entry): T1 sequence (whole entry)

inactivation constant (kinact) [1]	inhibition constant (Ki) [2]	kinact/Ki [3]	Kinact [4] [min⁻¹]	efflux ratio [5]	Papp A→B [6] [×10⁻⁶ cm/s]	Papp B→A [7] [×10⁻⁶ cm/s]	Ki [8] [µM]	Structure (SMILES)
inactive	inactive	inactive	–	–	–	–	–	C=CC(=O)NCC(=O)N1CCC2(CC1)CCN(C(=O)C13CC4CC(CC(C4)C1)C3)CC2
inactive	inactive	inactive	–	–	–	–	–	C=CC(=O)NCC(=O)NC1CCC(NC(=O)C23CC4CC(CC(C4)C2)C3)CC1 (configuration not stated)
inactive	inactive	inactive	–	–	–	–	–	C=CC(=O)NCC(=O)N1CC2(CCN(C(=O)C34CC5CC(CC(C5)C3)C4)CC2)C1
–	–	–	1.5	1.27	27.2	34.3	2.82	C=CC(=O)NCC(=O)N1CCN(C(=O)C23CC4CC(CC(C4)C2)C3)CC1
inactive	inactive	inactive	–	–	–	–	–	C=CC(=O)NCC(=O)NC1CN(C(=O)C23CC4CC(CC(C4)C2)C3)C1
inactive	inactive	inactive	–	–	–	–	–	C=CC(=O)NCC(=O)NCCNC(=O)C12CC3CC(CC(C3)C1)C2
inactive	inactive	inactive	–	–	–	–	–	C=CC(=O)NCC(=O)NCCCCCNC(=O)C12CC3CC(CC(C3)C1)C2
–	–	–	0.67	–	–	–	115	C=CC(=O)NCC(=O)N1CCC[C@@H](NC(=O)C23CC4CC(CC(C4)C2)C3)C1
inactive	inactive	inactive	–	–	–	–	–	C=CC(=O)NCC(=O)NCCCNC(=O)C12CC3CC(CC(C3)C1)C2
–	–	–	–	–	19.7	39	–	C=CC(=O)N(C)CC(=O)N1CCN(C(=O)C23CC4CC(CC(C4)C2)C3)CC1
–	–	–	0.72	–	–	–	112	C=CC(=O)NCC(=O)N1CCC2(CC1)CCN(C(=O)C13CC4CC(CC(C4)C1)C3)C2
